27 molecules from patent publication US8569267B2, “Tetracyclic tetrahydrofuran derivatives containing cyclic amine side chain” (Janssen Pharmaceutica, NV, priority 2005, dated 2013) can be followed below.

The target of experiment [1] is T1, human cloned 5-HT2A receptor, expressed in L929 cells (Homo sapiens, UniProt P28223).
T1 construct: expressed in transfected cells; host or cells: L929 cells
In words: In vitro binding affinity for 5-HT2A receptor ([125I]R91150 radioligand binding). Conditions: human cloned 5-HT2A receptor in L929 cells, [125I]R91150; for IC50: read-out: 5-HT2A pIC50 (converted). In a few lines:
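Competition radioligand binding to human cloned 5-HT2A receptor expressed in L929 cells, using [125I]R91150 with test compound at various concentrations. At equilibrium, receptor-bound radioactivity was separated from free and counted. Affinity reflects inhibition of radioligand binding.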

Experiment [2] deals with T2, human cloned 5-HT2C receptor, expressed in CHO cells (Homo sapiens, UniProt P28335).
T2 construct: expressed in transfected cells; host or cells: CHO cells
T2 sequence (P28335 33-458): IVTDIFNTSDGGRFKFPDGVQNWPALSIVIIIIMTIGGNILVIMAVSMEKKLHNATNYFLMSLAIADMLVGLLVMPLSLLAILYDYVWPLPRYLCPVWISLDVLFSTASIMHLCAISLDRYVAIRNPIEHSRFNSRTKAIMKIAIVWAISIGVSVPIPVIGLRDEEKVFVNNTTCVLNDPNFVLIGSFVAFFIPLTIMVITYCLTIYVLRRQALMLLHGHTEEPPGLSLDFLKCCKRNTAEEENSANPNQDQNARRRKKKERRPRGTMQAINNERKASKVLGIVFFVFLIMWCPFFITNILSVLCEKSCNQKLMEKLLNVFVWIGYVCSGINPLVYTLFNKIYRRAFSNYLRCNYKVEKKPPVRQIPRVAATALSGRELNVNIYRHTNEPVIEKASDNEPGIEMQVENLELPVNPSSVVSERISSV
In words: In vitro binding affinity for 5-HT2C receptor ([3H]mesulergine radioligand binding). As to conditions: human cloned 5-HT2C receptor; for IC50: read-out: 5-HT2C pIC50 (converted). Put shortly: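 Competition radioligand binding: varying test-compound concentrations incubated with receptor preparation and radioligand to binding equilibrium. Bound radioactivity separated from free and counted; affinity inferred from concentration-dependent inhibition of radioligand binding.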

Experiment [3] addresses T3, human Dopamine D2L receptor (Homo sapiens, UniProt P14416).
T3 construct: expressed in transfected cells; host or cells: CHO cells
In words: In vitro binding affinity for human D2L receptor ([3H]Spiperone binding). As to conditions: human D2L receptor-transfected CHO cell membranes; for IC50: read-out: D2L pIC50 (converted). In a few lines: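 Membranes from CHO cells transfected with the receptor were incubated with [3H]Spiperone (diluted to 2 nmol/L before addition) and compound for 30 min at 37° C. Buffer was Tris-HCl, pH 7.7, with NaCl, CaCl2, MgCl2 and KCl, and non-specific binding was defined with 10^−6 mol/l Butaclamol. Bound radioactivity was collected by filtration, counted by scintillation, and competition curves calculated as percent specific binding.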

Experiment [4] deals with T4, NET (norepinephrine transporter) (Rattus norvegicus, UniProt Q63380).
T4 construct: Cortex from rat brain was collected and homogenised; from tissue; host or cells: rat brain cortex
Nature of the experiment: In vitro determination of NET reuptake inhibition ([3H]Nixosetine binding, rat brain cortex). Conditions: rat brain cortex; for IC50: read-out: NET pIC50 (converted). In a few lines:
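Rat cortex homogenised in Tris 50 mM, NaCl 120 mM, KCl 5 mM, pH 7.4 was used for competition binding against [3H]nisoxetine. Bound radioligand was collected by filtration on GF/B filters and counted by scintillation. Percentage specific binding and competition curves were derived.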

T4 sequence (Q63380 1-617): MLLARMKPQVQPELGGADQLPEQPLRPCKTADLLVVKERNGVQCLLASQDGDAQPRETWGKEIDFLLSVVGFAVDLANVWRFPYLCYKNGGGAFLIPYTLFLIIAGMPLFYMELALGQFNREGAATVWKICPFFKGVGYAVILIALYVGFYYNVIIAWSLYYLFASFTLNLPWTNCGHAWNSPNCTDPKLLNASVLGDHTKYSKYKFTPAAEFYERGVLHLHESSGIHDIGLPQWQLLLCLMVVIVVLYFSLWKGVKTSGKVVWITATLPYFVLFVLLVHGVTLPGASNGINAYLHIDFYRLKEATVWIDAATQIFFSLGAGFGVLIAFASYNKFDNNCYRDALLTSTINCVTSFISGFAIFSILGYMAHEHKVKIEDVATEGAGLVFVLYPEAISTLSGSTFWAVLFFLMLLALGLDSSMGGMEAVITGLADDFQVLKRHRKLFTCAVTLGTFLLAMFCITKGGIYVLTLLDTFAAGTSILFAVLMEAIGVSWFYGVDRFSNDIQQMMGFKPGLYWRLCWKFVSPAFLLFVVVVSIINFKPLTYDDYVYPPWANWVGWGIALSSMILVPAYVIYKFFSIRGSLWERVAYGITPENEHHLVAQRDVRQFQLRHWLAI
T1 sequence (P28223 whole entry): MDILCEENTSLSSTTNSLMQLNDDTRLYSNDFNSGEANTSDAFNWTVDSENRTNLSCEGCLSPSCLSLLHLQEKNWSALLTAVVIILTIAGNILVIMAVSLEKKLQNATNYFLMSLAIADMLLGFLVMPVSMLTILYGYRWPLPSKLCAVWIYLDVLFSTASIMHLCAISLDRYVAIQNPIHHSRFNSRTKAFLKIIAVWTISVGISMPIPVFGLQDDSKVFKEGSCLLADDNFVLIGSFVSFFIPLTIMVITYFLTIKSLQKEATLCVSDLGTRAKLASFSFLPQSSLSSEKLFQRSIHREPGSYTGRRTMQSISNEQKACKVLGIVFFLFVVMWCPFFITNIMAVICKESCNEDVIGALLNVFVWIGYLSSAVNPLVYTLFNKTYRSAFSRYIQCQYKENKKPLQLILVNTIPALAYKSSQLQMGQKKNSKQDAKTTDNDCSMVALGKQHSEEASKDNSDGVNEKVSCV
T3 sequence (P14416 whole entry): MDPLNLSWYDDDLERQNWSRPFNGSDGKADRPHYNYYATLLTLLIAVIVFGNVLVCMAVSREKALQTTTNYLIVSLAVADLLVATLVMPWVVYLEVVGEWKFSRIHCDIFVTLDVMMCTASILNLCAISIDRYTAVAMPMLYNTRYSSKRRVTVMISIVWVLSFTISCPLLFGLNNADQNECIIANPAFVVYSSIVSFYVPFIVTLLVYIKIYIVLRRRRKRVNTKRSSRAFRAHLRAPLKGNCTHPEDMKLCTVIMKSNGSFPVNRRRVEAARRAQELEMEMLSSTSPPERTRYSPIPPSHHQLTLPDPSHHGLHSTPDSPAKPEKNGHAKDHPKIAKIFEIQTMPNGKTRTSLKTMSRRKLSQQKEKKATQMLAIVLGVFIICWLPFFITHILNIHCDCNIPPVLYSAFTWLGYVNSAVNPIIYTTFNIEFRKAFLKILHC

On to `O=C(NC1CC1)C1CCN(CC2CC3c4ccccc4Cc4ccc(F)cc4C3O2)CC1` (stereo not drawn) [Compound 187], for which the IC50 was 0.427 nM in experiment [1], 1.15 nM in experiment [2], 18.2 nM in experiment [3] and more than 10000 nM in experiment [4].

Regarding `O=C(NC1CCCCC1)C1CCN(CC2CC3c4ccccc4Cc4ccc(F)cc4C3O2)CC1` (stereo not drawn) [Compound 188], the IC50 in experiment [1] is less than 10 nM; in experiment [2], 2.75 nM; in experiment [3] it was 9.77 nM; in experiment [4] it was more than 10000 nM.

Regarding `O=C(Nc1ccc(F)c(Cl)c1)C1CCN(CC2CC3c4ccccc4Cc4ccc(F)cc4C3O2)CC1` (stereo not drawn) [Compound 190], the IC50 is less than 10 nM in experiment [1], 2.75 nM in experiment [2], 47.9 nM in experiment [3] and more than 10000 nM in experiment [4].

With `COc1ccc(C)c(NC(=O)C2CCN(CC3CC4c5ccccc5Cc5ccc(F)cc5C4O3)CC2)c1` (stereo not drawn) [Compound 191], the IC50 is less than 10 nM in experiment [1], 3.47 nM in experiment [2], 11.7 nM in experiment [3] and 9120 nM in experiment [4].

`O=C(Nc1cccc2cnccc12)C1CCN(CC2CC3c4ccccc4Cc4ccc(F)cc4C3O2)CC1` (stereo not drawn) [Compound 192]: the IC50 in experiment [1] was less than 10 nM; in experiment [2] it was 3.8 nM; in experiment [3], 11.2 nM; in experiment [4], 7410 nM.

As for `O=C(NC1CCCCCC1)C1CCN(CC2CC3c4ccccc4Cc4ccc(F)cc4C3O2)CC1` (stereo not drawn) [Compound 193], the IC50 in experiment [1] was 1.41 nM; in experiment [2] it was 2.63 nM; in experiment [3], 15.5 nM; in experiment [4], 5250 nM.

In the case of `O=C(NCCC(c1ccccc1)c1ccccc1)C1CCN(CC2CC3c4ccccc4Cc4ccc(F)cc4C3O2)CC1` (stereo not drawn) [Compound 198], the IC50 in experiment [1] was 8.13 nM; in experiment [2], 16.2 nM; in experiment [3] it was 25.1 nM; in experiment [4], 7590 nM.

Turning to `CCN(CC)CCN(C)C(=O)C1CCN(CC2CC3c4ccccc4Cc4ccc(F)cc4C3O2)CC1` (stereo not drawn) [Compound 199], the IC50 in experiment [1] was 6.46 nM; in experiment [2], 1.2 nM; in experiment [3], 35.5 nM; in experiment [4], more than 10000 nM.

In the case of `O=C(C1CCN(CC2CC3c4ccccc4Cc4ccc(F)cc4C3O2)CC1)N1CCC1` (stereo not drawn) [Compound 200], the IC50 in experiment [1] is less than 10 nM; in experiment [2], 8.13 nM; in experiment [3] it was 15.5 nM; in experiment [4], more than 10000 nM.

For the molecule `O=C(C1CCN(CC2CC3c4ccccc4Cc4ccc(F)cc4C3O2)CC1)N1CC=CC1` (stereo not drawn) [Compound 201], the IC50 in experiment [1] is 0.617 nM; in experiment [2] it was 10.5 nM; in experiment [3], 41.7 nM; in experiment [4], more than 10000 nM.

On to `O=C(C1CCN(CC2CC3c4ccccc4Cc4ccc(F)cc4C3O2)CC1)N1CCN(c2cccc(Cl)c2)CC1` (stereo not drawn) [Compound 202], for which the IC50 was 3.47 nM in experiment [1], 8.13 nM in experiment [2], 24 nM in experiment [3] and 1620 nM in experiment [4].

As to `COc1ccccc1N1CCN(C(=O)C2CCN(CC3CC4c5ccccc5Cc5ccc(F)cc5C4O3)CC2)CC1` (stereo not drawn) [Compound 203], the IC50 in experiment [1] was 3.63 nM; in experiment [2], 3.09 nM; in experiment [3], 16.6 nM; in experiment [4], 4470 nM.

Consider `O=C(C1CCN(CC2CC3c4ccccc4Cc4ccc(F)cc4C3O2)CC1)N1CCN(CC=Cc2ccccc2)CC1` (stereo not drawn) [Compound 204], for which the IC50 is 3.16 nM in experiment [1], 10.5 nM in experiment [2], 66.1 nM in experiment [3] and 3470 nM in experiment [4].

For the molecule `CC(=O)C1(c2ccccc2)CCN(C(=O)C2CCN(CC3CC4c5ccccc5Cc5ccc(F)cc5C4O3)CC2)CC1` (stereo not drawn) [Compound 209], the IC50 is 4.68 nM in experiment [1], 12 nM in experiment [2], 31.6 nM in experiment [3] and 5250 nM in experiment [4].

On to `O=C(NC1CCN(CC2CC3c4ccccc4Cc4ccc(F)cc4C3O2)CC1)c1ccc(Cl)cc1Cl` (stereo not drawn) [Compound 230], for which the IC50 in experiment [1] is 2.95 nM; in experiment [2], 12.6 nM; in experiment [3] it was 6.03 nM; in experiment [4] it was 5750 nM.

As to `N#Cc1ccc(C(=O)NC2CCN(CC3CC4c5ccccc5Cc5ccc(F)cc5C4O3)CC2)cc1` (stereo not drawn) [Compound 236], the IC50 in experiment [1] is 1.51 nM; in experiment [2] it was 9.55 nM; in experiment [3], 6.76 nM; in experiment [4], more than 10000 nM.

Regarding `CCOC(=O)CNC(=O)NC1CCN(CC2CC3c4ccccc4Cc4ccc(F)cc4C3O2)CC1` (stereo not drawn) [Compound 242], the IC50 in experiment [1] is 1.2 nM; in experiment [2], 4.07 nM; in experiment [3], 3.98 nM; in experiment [4], 2880 nM.

As to `Fc1ccc2c(c1)C1OC(CN3CCC(NC(=S)NCCN4CCOCC4)CC3)CC1c1ccccc1C2` (stereo not drawn) [Compound 253], the IC50 in experiment [1] was 2.09 nM; in experiment [2] it was 10.2 nM; in experiment [3], 24.5 nM; in experiment [4], 1510 nM.

Turning to `Fc1ccc2c(c1)[C@@H]1O[C@@H](CN3CC=CC3)C[C@@H]1c1ccccc1C2.O=C(O)C(=O)O` [Compound 266], the “5-HT2A pIC50” value in experiment [1] is listed as 8.09. Moreover, the “5-HT2C pIC50” value in experiment [2] is recorded as 8.42. In experiment [3], the “D2L pIC50” value amounted to 7.42. In addition, in experiment [4], the “NET pIC50” value came out at 6.61.

`Fc1ccc2c(c1)[C@@H]1O[C@@H](CN3CCCNCC3)C[C@@H]1c1ccccc1C2.O=C(O)C(=O)O.O=C(O)C(=O)O` [Compound 267]: the “5-HT2A pIC50” value in experiment [1] is given as 7.84. In addition, the “5-HT2C pIC50” value in experiment [2] was 7.65. In experiment [3], the “D2L pIC50” value came out at 6.81. Also, the “NET pIC50” value in experiment [4] worked out at 5.10.

In the case of `O=C(O)C(=O)O.OCCN1CCCN(C[C@H]2C[C@@H]3c4ccccc4Cc4ccc(F)cc4[C@@H]3O2)CC1` [Compound 269], in experiment [1], the “5-HT2A pIC50” value was determined as 8.25. Moreover, the “5-HT2C pIC50” value in experiment [2] was determined as 8.14. The “D2L pIC50” value in experiment [3] is given as 7.83. In addition, in experiment [4], the “NET pIC50” value is 5.15.

Regarding `N#CC1=CCN(C[C@H]2C[C@@H]3c4ccccc4Cc4ccc(F)cc4[C@@H]3O2)CC1.O=C(O)C(F)(F)F` [Compound 270], in experiment [1], the “5-HT2A pIC50” value is given as 7.18. In addition, the “5-HT2C pIC50” value in experiment [2] stood at 7.45. The “D2L pIC50” value in experiment [3] was 6.67. Further, in experiment [4], the “NET pIC50” value is 5.78.

For `COCC1(O)CCN(C[C@H]2C[C@@H]3c4ccccc4Cc4ccc(F)cc4[C@@H]3O2)CC1` [Compound 272], the IC50 in experiment [1] was 1.23 nM; in experiment [2], 0.741 nM; in experiment [3] it was 2.14 nM; in experiment [4] it was 724 nM.

With `CC(=O)C1(c2ccccc2)CCN(C[C@H]2C[C@@H]3c4ccccc4Cc4ccc(F)cc4[C@@H]3O2)CC1.O=C(O)C(=O)O` [Compound 273], in experiment [1], the “5-HT2A pIC50” value is 8.48. Also, the “5-HT2C pIC50” value in experiment [2] turned out to be 8.24. In addition, the “D2L pIC50” value in experiment [3] is reported as 7.71. Besides, the “NET pIC50” value in experiment [4] is on record as less than 5.

Turning to `Fc1ccc2c(c1)[C@@H]1O[C@@H](CN3CCc4ccccc4C3)C[C@@H]1c1ccccc1C2.O=C(O)C(F)(F)F` [Compound 275], in experiment [1], the “5-HT2A pIC50” value was 8.52. Moreover, in experiment [2], the “5-HT2C pIC50” value was 8.66. Moreover, the “D2L pIC50” value in experiment [3] is 8.03. Further, in experiment [4], the “NET pIC50” value came to 5.49.

`COc1cc2c(cc1OC)CN(C[C@H]1C[C@@H]3c4ccccc4Cc4ccc(F)cc4[C@@H]3O1)CC2` [Compound 276]: the IC50 was 1.02 nM in experiment [1], 1.15 nM in experiment [2], 17 nM in experiment [3] and more than 10000 nM in experiment [4].

As for `Fc1ccc2c(c1)[C@@H]1O[C@@H](CN3CCC4(CC3)OCCO4)C[C@@H]1c1ccccc1C2` [Compound 278], the IC50 in experiment [1] is 1.62 nM; in experiment [2] it was 9.77 nM; in experiment [3] it was 2.29 nM; in experiment [4], more than 10000 nM.
